Data as given in patent US20110152313A1 (MACQUARIE UNIVERSITY, priority 2008, published 2011).

Experiments:
Assay in all cases: kinase binding screen (kinase-tagged T7 phage, qPCR), % Ctrl
CAMK2G = CAMK2G (Homo sapiens, UniProt Q13555)
How it was run: (§1)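 Steps: grow T7 phage displaying kinase in BL21-derived E. coli; clarify lysate; combine with ligand-liganded, blocked beads and compound (single concentration, diluted from 40× DMSO stock); elute; quantify kinase by qPCR.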

PLK4 = target: T1, PLK4 (Homo sapiens, UniProt O00444)
T1 sequence (O00444 1-970): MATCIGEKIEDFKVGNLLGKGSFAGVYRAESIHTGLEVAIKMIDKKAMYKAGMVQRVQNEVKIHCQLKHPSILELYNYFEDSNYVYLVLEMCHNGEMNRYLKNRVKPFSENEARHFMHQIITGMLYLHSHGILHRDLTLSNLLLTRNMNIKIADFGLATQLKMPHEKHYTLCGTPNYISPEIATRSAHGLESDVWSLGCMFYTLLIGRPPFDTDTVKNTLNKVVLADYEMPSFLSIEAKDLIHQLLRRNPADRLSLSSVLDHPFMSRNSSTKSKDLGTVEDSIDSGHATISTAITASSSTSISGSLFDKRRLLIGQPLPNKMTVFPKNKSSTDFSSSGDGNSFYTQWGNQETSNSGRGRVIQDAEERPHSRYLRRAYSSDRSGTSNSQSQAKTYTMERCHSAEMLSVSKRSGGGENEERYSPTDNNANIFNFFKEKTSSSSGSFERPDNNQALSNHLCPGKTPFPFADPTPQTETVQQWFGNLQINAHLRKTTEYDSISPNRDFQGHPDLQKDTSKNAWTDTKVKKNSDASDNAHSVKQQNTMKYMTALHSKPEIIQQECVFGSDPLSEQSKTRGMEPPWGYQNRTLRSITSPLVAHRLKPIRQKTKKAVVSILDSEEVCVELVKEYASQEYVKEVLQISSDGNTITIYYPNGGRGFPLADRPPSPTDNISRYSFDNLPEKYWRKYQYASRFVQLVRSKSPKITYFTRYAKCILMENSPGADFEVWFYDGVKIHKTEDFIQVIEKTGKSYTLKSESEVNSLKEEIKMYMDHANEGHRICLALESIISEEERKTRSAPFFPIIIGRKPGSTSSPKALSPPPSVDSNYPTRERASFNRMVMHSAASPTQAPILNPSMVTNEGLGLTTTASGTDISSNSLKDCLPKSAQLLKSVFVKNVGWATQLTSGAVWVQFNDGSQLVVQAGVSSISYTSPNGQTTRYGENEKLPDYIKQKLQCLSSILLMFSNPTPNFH
How it was run: as §1

PIK3C2G = target: T2, PIK3C2G (Homo sapiens, UniProt O75747)
T2 sequence (O75747 1-1486): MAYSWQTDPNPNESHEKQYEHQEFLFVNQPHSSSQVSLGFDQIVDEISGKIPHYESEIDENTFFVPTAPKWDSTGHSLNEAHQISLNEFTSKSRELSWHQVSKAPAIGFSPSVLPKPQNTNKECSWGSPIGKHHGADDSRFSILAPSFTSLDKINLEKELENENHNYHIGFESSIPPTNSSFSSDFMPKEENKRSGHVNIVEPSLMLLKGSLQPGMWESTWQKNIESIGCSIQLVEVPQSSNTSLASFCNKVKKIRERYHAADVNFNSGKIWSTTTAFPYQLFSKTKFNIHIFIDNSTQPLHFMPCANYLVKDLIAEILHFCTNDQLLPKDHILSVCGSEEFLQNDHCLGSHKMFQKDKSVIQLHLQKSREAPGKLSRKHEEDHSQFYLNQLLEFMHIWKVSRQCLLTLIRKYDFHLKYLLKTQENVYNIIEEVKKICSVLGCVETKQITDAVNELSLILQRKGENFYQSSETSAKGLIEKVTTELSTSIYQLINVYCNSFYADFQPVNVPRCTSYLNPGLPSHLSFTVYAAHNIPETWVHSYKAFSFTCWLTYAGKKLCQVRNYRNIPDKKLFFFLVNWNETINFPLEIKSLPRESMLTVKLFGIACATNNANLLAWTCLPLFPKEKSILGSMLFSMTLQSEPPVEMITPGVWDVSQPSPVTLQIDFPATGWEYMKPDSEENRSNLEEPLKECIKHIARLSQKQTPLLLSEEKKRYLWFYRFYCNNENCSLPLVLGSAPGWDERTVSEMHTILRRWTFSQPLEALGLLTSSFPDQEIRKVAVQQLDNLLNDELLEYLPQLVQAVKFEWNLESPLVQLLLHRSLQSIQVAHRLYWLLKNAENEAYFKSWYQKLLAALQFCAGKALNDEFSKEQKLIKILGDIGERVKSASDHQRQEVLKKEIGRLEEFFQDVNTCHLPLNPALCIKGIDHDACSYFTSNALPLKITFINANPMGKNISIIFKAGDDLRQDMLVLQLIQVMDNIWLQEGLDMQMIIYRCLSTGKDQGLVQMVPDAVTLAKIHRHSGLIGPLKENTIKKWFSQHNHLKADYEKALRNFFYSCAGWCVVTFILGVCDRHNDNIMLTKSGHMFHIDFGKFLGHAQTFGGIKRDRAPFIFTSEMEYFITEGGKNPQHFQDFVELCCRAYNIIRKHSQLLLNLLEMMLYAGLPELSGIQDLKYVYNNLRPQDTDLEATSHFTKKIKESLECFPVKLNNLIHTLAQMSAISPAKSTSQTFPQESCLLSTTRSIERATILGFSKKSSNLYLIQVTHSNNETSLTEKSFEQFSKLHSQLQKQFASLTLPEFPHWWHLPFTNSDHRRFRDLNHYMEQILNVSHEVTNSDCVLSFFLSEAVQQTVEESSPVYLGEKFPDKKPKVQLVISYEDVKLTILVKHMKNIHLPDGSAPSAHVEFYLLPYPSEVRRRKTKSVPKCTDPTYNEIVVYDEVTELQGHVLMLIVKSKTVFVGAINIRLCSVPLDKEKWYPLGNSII
How it was run: as §1

CAMK1G = CAMK1G (Homo sapiens, UniProt Q96NX5)
Sequence of CAMK1G (Q96NX5 whole entry): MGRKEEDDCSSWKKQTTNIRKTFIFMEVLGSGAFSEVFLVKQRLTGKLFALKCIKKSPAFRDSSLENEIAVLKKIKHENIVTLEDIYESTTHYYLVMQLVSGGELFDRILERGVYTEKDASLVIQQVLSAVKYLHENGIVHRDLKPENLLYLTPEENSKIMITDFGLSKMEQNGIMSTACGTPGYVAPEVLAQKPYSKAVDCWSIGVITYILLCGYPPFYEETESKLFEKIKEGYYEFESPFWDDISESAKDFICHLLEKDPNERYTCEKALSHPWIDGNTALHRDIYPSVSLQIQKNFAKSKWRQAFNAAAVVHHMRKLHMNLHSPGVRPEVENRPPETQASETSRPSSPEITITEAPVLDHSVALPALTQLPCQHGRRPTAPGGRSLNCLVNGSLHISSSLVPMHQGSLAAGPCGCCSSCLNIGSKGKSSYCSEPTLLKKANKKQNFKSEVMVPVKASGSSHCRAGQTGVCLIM
How it was run: as §1

Sequence of CAMK2G (Q13555 whole entry): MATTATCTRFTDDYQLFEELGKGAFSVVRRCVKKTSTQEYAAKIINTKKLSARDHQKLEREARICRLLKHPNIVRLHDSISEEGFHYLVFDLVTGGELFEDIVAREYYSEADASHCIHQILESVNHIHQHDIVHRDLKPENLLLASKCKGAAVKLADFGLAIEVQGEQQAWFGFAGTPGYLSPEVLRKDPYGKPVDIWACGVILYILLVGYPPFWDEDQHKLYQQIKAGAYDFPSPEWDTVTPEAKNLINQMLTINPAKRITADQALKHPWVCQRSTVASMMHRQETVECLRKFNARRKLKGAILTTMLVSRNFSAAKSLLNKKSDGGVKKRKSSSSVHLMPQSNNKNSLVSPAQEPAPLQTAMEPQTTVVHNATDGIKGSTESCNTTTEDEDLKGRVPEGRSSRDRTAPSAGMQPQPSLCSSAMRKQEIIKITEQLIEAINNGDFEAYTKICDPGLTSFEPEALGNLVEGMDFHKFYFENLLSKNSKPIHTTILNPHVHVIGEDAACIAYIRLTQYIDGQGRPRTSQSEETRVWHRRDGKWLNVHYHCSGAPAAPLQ

Row | SMILES | remaining activity at 1 µM (CAMK2G) [%] | remaining activity at 1 µM (PLK4) [%] | remaining activity at 1 µM (PIK3C2G) [%] | remaining activity at 1 µM (CAMK1G) [%] | remaining activity at 10 µM (CAMK2G; 10 μM) [%] | remaining activity at 10 µM (PLK4; 10 μM) [%] | remaining activity at 10 µM (PIK3C2G; 10 μM) [%] | remaining activity at 10 µM (CAMK1G; 10 μM) [%]
1 | Nc1nc2c(-c3cnc4ccccc4c3)nccc2[nH]1 [drawing 36, 4-(quinolin-3-yl)-1H-imidazo[4,5-c]pyridin-2-amine] | 100 | 100 | 30 | 100 |  |  |  | 
2 | Nc1nc2c(-c3ccccn3)nccc2[nH]1 [drawing 35, 4-(pyrid-2-yl)-1H-imidazo[4,5-c]pyridin-2-amine] | 20 | 55 | 66 | 43 |  |  |  | 
3 | Nc1nc2c(-c3cc(Br)c(Br)[nH]3)nccc2[nH]1 [Ageladine A, ageladine A, reference compound] | 100 | 81 | 99 | 100 | 78 | 65 | 80 | 96
